A word on the EC50: it is the concentration giving half of the maximal effect.

1 molecule from US11420962B2, “Indene derivatives useful in treating pain and inflammation” (TARO PHARMACEUTICALS INC., priority 2018, dated 2022) can be followed below.

One series relates to Rat DRG. The experiment in a line: Rat dorsal root ganglion excitability response (EFS, Ca2+ transients). In kind it is cell-based. Particulars: Rattus norvegicus; Table 3; electrical field stimulation, Ca5 indicator; read-out: Scoring (EC50, Rat DRG excitability). The essentials:
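Adult rat DRG cells cultured for 2 days were loaded with the Ca5 dye 1 h before electrical field stimulation under four protocols. Compounds were tested at six concentrations (typically top 30 μM, 1:3 steps, duplicate), added either 24 h before or directly before EFS. The read-out was the per-well peak/baseline fluorescence ratio change, with imaging used to check for toxicity.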

The next series has as its system Mice (male, C57Bl/6). The experiment in a line: Formalin pain assay in mice. In kind it is in vivo. The protocol: Mice (male, C57BL/6) were placed singly in a Perspex chamber for approximately 30 min on three successive days to acclimate and thereby reduce stress-induced behaviors. On the fourth day, the experimental animals received a 25 μl injection of 2.5% formalin beneath the left plantar skin using a 29-gauge syringe. […] The total time spent on flinches/licking/biting of the hind paw was recorded by visual observation for every 5 min period/interval for total observation duration of 60 min in two phases, the early phase (0-5 min) and the late phase (15-40 min). Observers were blinded to the treatment group allocation.
For test compounds, the % protection from 0-60 min was used to assess activity. Scoring for the test compounds was as follows: “A” represents a % protection of 81 to 100%, “B” represents a % protection of 61 to 80%, “C” represents a % protection of 31 to 60% and “D” represents a % protection of 0 to 30%.

The test system of series [1] is Rats (female, Sprague-Dawley). The experiment in a line: Rat ketamine cystitis (visceral pain). In kind it is in vivo. The protocol: Rats (female, Sprague-Dawley) received daily intraperitoneal injections of saline (sham control) or ketamine (50 mg/kg) for 14 days. […] Referred mechanical sensitivity was assessed on Day 7 and Day 14 by application of a series of von Frey filaments to the lower abdomen and the nociceptive threshold was scored.

Series [2] in a line: Metabolism by human liver microsomes. In kind it is in vitro ADME. The conditions noted are these: Table 8; 10 µM, in the presence of NADPH, 1 mg/mL protein. The essentials: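 Compound at 10 μM preincubated 10 min at 37 °C with human liver microsomes (1 mg/mL protein), 100 mM Tris HCl pH 7.5; started with 1 mM NADPH, run 60 min. Percent remaining at 60 min versus 0-time by LC-MS/MS analyte/internal-standard ratio, scored in bands.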
(Microsomes from liver hold many membrane-bound enzymes, among them those of drug oxidation.)

Turning to `C=C1CC[C@H]2[C@H](CN)[C@@H]([C@@]3(C)Cc4cn[nH]c4C[C@@H]3CO)CC[C@]12C` [Ia-1, ((5R,6S)-5-((3aS,4R,5S,7aS)-4-(aminomethyl)-7a-methyl-1-methyleneoctahydro-1H-inden-5-yl)-5-methyl-4,5,6,7-tetrahydro-1H-indazol-6-yl)methanol], the EC50 with Rat DRG lay within 6 to 15 µM. Further, the “% inhibition, early phase (neurogenic pain)” value with Mice (male, C57Bl/6) (30 mg/kg dose, 0-5 min) came to 59%. Besides, the “% inhibition, late phase (inflammatory pain)” value with Mice (male, C57Bl/6) (30 mg/kg dose, 15-40 min) came to 52%. In the series with Mice (male, C57Bl/6) (Table 7, formalin 2.5%, left plantar), the “Scoring (% protection from 0-60 min)” value is “B (a % protection of 61 to 80%)”. Further, the “increase in the nociceptive threshold (relative to unchallenged)” value worked out at 61% in series [1] (1.0 mg/kg dose, PO, QD); 69% in series [1] (3.0 mg/kg dose, PO, QD); 85% in series [1] (10 mg/kg dose). Moreover, in series [2], the “Scoring (% of drug remaining after 60 minutes, PDR60)” value is reported as “B (a PDR^60 of 61 to 80%)”.
